Data taken from US7838271B2, “Microbiological method for producing amides” (priority 2001, dated 2010).
Read-outs that look alike come from different tables or passages of the source.

Key:
[1] = test system: purified Rhodococcus sp. FZ4 nitrile hydratase; format: biochemical
Protocol: (§1) A solution comprising nitrile hydratase solution (0.695 μmol/min; 0.025 ml), potassium phosphate buffer (0.1 M; pH 7.0; 0.475 ml), distilled water (0.150 ml) and different potential inhibitors (0.100 ml) was incubated at 20° C. for 5 min. This was followed by the addition of 3-cyanopyridine (1.0 M; 0.250 ml). The concentration of the inhibitors in the reaction mixture was 1.0 mM. The reaction mixture was incubated at 20° C. for 10 min. The reaction was stopped by adding MeOH. The amount of nicotinamide produced was determined by means of HPLC according to Example 1.

[2] = test system: Rhodococcus sp. FZ4 nitrile hydratase; experiment: Substrate specificity of nitrile hydratase activity, resting cells; format: cell-based
Protocol: (§2) Nitrile hydratase activity was determined by incubating a reaction mixture comprising 3-cyanopyridine (1.0 M; 1.0 ml), potassium phosphate buffer (0.1 M, pH 7.0; 0.5 ml) and cell suspension (0.5 ml) with stirring at 20° C. for 5 min. The reaction was stopped by adding HCI (5 M; 0.1 ml). After filtration (0.2 μm filter) of the reaction mixture, the amount of nicotinamide produced was determined by means of HPLC (Waters Spherisorb 5 μ ODS2 (4.6×150 mm); KH2P04/H3P04 (10 mM; pH 2.8)/acetonitrile=9:1 (v/v); 1 ml/min; 230 nm). The total activity is expressed as μmol of nicotinamide produced/ (min×ml) and the specific activity is expressed as μmol of nicotinamide produced/(min×ml×OD610 nm).
Rhodococcus sp. FZ4 nitrile hydratase activity with respect to different substrates was determined according to Example 1, except that the appropriate substrate was used instead of 3-cyanopyridine and that the HPLC conditions were modified according to the substrate used.

[3] = test system: purified Rhodococcus sp. FZ4 nitrile hydratase; experiment: Substrate specificity of purified nitrile hydratase; format: biochemical
Protocol: A reaction mixture comprising nitrile hydratase solution (0.695 μmol/min; 0.025 ml), different substrates (0.500 ml) and potassium phosphate buffer (0.1 M; pH 7.0; 0.475 ml) was incubated at 20° C. for 5 to 10 min. The concentrations of the substrates used were in the range from 0.015 to 0.250 M. The reaction was stopped by adding MeOH. The amount of amide produced was determined by means of HPLC.

[4] = test system: Rhodococcus rhodochrous J1 nitrile hydratase; experiment: Substrate specificity of nitrile hydratase activity (comparison strain); format: cell-based
[5] = test system: Rhodococcus sp. FZ4; format: cell-based
Protocol: (§3) The preculture medium of Table 2 was inoculated with strain Rhodococcus sp. FZ4 (DSM 13597), followed by incubation with shaking at 28° C. for 1 to 2 days. The preculture was transferred into the culture medium of Table 5, which contained different inducers, and cultured with shaking at 28° C. for 3 days. Nitrile hydratase activity was determined according to Example 1. Rhodococcus sp.

[6] = test system: Rhodococcus sp. FZ4 nitrile hydratase; format: cell-based
Protocol: as §2, §3

[7] = test system: purified Rhodococcus sp. FZ4 nitrile hydratase; experiment: Influence of metal ions on the activity of purified nitrile hydratase; format: biochemical; conditions: no addition = 100
Protocol: as §1
The influence of metal ions on the activity of purified nitrile hydratase was carried out according to Example 24, but with the addition of metal ions instead of potential inhibitors. […]

[8] = culture medium with inducer 0.2% (w/v), 28° C., 3 days
[9] = culture medium with inducer 0.2% (w/v), 28° C., 3 days, substrate 3-cyanopyridine

| SMILES | Relative activity [1] [%] | Growth [5, 8] [OD610 nm] | Specific activity [6, 9] | Total activity [6, 9] [µmol/min/mL] | also measured |
| --- | --- | --- | --- | --- | --- |
| O[C@H](CS)[C@H](O)CS (racemic) [Dithiothreitol] | 103 | – | – | – | – |
| c1cnc2c(c1)ccc1cccnc12 [1,10-Phenanthroline] | 106 | – | – | – | – |
| c1ccc(-c2ccccn2)nc1 [2,2′-Bipyridyl] | 97.8 | – | – | – | – |
| N#Cc1ccccn1 [2-Cyanopyridine] | – | – | – | – | Relative activity [2]: 39.3%; Relative activity [3]: 36.7%; Relative activity [4]: 45% |
| OCCS [2-Mercaptoethanol] | 76.3 | – | – | – | – |
| CC=CCC#N [3-Pentenenitrile] | – | 4.62 | 13.4 μmol/(min × ml × OD610 nm) | 62 | – |
| N#Cc1ccncc1 [4-Cyanopyridine] | – | – | – | – | Relative activity [2]: 98.4%; Relative activity [3]: 92.8%; Relative activity [4]: 70% |
| O=C(O)c1cc(SSc2ccc([N+](=O)[O-])c(C(=O)O)c2)ccc1[N+](=O)[O-] [5,5′-Dithiobis(2-nitrobenzoic acid)] | 93.4 | – | – | – | – |
| Oc1cccc2cccnc12 [8-Hydroxyquinoline] | 97.8 | – | – | – | – |
| C=CC(N)=O [Acrylamide] | – | – | – | – | Growth [5]: 5.17 OD610 nm; Specific activity [6]: 11.7 μmol/(min × ml × OD610 nm); Total activity [6]: 60.5 µmol/min/mL |
| C=CC#N [Acrylonitrile] | – | 3.27 | 1.81 μmol/(min × ml × OD610 nm) | – | Relative activity [2]: 498%; Relative activity [3]: 774%; Relative activity [4]: 478% |
| O=[N+]([O-])[O-].[Ag+] [AgNO3] | – | – | – | – | Relative activity ([7]; metal ions 1.0 mM): 0% |
| NC(=O)c1ccccc1 [Benzamide] | – | 3.88 | 2.12 μmol/(min × ml × OD610 nm) | 8.24 | – |
| N#Cc1ccccc1 [Benzonitrile] | – | – | – | – | Relative activity [2]: 41.7%; Relative activity [3]: 75.6%; Growth [5]: 5.62 OD610 nm; Specific activity [6]: 7.17 μmol/(min × ml × OD610 nm); Total activity [6]: 40.3 µmol/min/mL; Relative activity [4]: 27% |
| CCCC(N)=O [Butyramide] | – | 4.7 | 73.2 μmol/(min × ml × OD610 nm) | 344 | – |
| CCCC#N [Butyronitrile] | – | 5.26 | 58.4 μmol/(min × ml × OD610 nm) | 307 | Relative activity [2]: 466%; Relative activity [3]: 578%; Relative activity [4]: 26% |
| [Ca+2].[Cl-].[Cl-] [CaCl2] | – | – | – | – | Relative activity ([7]; metal ions 1.0 mM): 113% |
| CCCCCC#N [Caprononitrile] | – | 4.54 | 23.0 μmol/(min × ml × OD610 nm) | 104 | – |
| C/C=C/C(N)=O [Crotonamide] | – | 9.32 | 59.9 μmol/(min × ml × OD610 nm) | 558 | – |
| CC=CC#N [Crotononitrile] | – | 8.24 | 49.4 μmol/(min × ml × OD610 nm) | 407 | Relative activity [2]: 92.1%; Relative activity [3]: 114%; Relative activity [4]: 78% |
| O=S(=O)([O-])[O-].[Cu+2] [CuS04] | – | – | – | – | Relative activity ([7]; metal ions 1.0 mM): 177% |
| N#CCC(N)=O [Cyanoacetamide] | – | 4.75 | 6.50 μmol/(min × ml × OD610 nm) | 30.9 | – |
| NCCS [Cysteamine] | 99.1 | – | – | – | – |
| N[C@@H]1CONC1=O [D-Cycloserine] | 86.3 | – | – | – | – |
| O=C(O)CN(CCN(CC(=O)O)CC(=O)O)CC(=O)O [EDTA, Ethylenediaminetetraacetic acid] | 100 | – | – | – | – |
| [Cl][Fe]([Cl])[Cl] [FeCl3] | – | – | – | – | Relative activity ([7]; metal ions 1.0 mM): 105% |
| [Cl][Hg][Cl] [HgCl2] | – | – | – | – | Relative activity ([7]; metal ions 0.1 mM (footnote b)): 0% |

| SMILES | Relative activity [1] [%] | Growth [5, 8] [OD610 nm] | Specific activity [6, 9] | Total activity [6, 9] [µmol/min/mL] | also measured |
| --- | --- | --- | --- | --- | --- |
| NO [Hydroxylamine] | 1.34 | – | – | – | – |
| O=C(O)CI [Iodoacetate] | 96.7 | – | – | – | – |
| CC(C)C(N)=O [Isobutyramide] | – | 3.55 | 109 μmol/(min × ml × OD610 nm) | 387 | – |
| CC(C)C#N [Isobutyronitrile] | – | 5.24 | 52.1 μmol/(min × ml × OD610 nm) | 273 | – |
| CC(C)CCC#N [Isocaprononitrile] | – | 4.72 | 28.5 μmol/(min × ml × OD610 nm) | 134 | – |
| NC(=O)c1ccncc1 [Isonicotinamide] | – | 5.03 | 2.17 μmol/(min × ml × OD610 nm) | 10.9 | – |
| CC(C)CC#N [Isovaleronitrile] | – | 3.22 | 23.2 μmol/(min × ml × OD610 nm) | 74.7 | – |
| C=C(C)C(N)=O [Methacrylamide] | – | 4.55 | 125 μmol/(min × ml × OD610 nm) | 569 | Relative activity [3]: 1.39% |
| C=C(C)C#N [Methacrylonitrile] | – | 4.61 | 71.5 μmol/(min × ml × OD610 nm) | 330 | Relative activity [2]: 3.64%; Relative activity [4]: 87% |
| [Cl][Mn][Cl] [MnCl2] | – | – | – | – | Relative activity ([7]; metal ions 1.0 mM): 123% |
| CCN1C(=O)C=CC1=O [N-Ethylmaleinimide] | 95.3 | – | – | – | – |
| [Cl][Ni][Cl] [NiCl2] | – | – | – | – | Relative activity ([7]; metal ions 1.0 mM): 123% |
| NNc1ccccc1 [Phenylhydrazine] | 84.6 | – | – | – | – |
| O=S(=O)(F)Cc1ccccc1 [Phenylmethanesulfonyl fluoride] | 110 | – | – | – | – |
| CCC(N)=O [Propionamide] | – | 5.17 | 28.7 μmol/(min × ml × OD610 nm) | 149 | – |
| CCC#N [Propionitrile] | – | 4.72 | 20.3 μmol/(min × ml × OD610 nm) | 95.8 | Relative activity [2]: 412%; Relative activity [3]: 693%; Relative activity [4]: 435% |
| O=S(=O)(O)c1cc(O)c(O)c(S(=O)(=O)O)c1 [Tiron] | 114 | – | – | – | – |
| NC(N)=O [Urea] | 106 | 6.16 | 0.918 μmol/(min × ml × OD610 nm) | 5.66 | – |
| CCCCC(N)=O [Valeramide] | – | 5.61 | 57.5 μmol/(min × ml × OD610 nm) | 322 | – |
| CCCCC#N [Valeronitrile] | – | 3.70 | 32.4 μmol/(min × ml × OD610 nm) | 120 | – |
| O=S(=O)([O-])[O-].[Zn+2] [ZnSO4] | – | – | – | – | Relative activity ([7]; metal ions 1.0 mM): 121% |
| N#Cc1cccc(Cl)c1 [m-Chlorobenzonitrile] | – | – | – | – | Relative activity [2]: 39.3%; Relative activity [3]: 66.5%; Relative activity [4]: 43% |
| N#Cc1ccccc1Cl [o-Chlorobenzonitrile] | – | – | – | – | Relative activity [2]: 0%; Relative activity [3]: 0%; Relative activity [4]: 2.8% |
| N#Cc1ccc(Cl)cc1 [p-Chlorobenzonitrile] | – | – | – | – | Relative activity [2]: 8.25%; Relative activity [3]: 8.31%; Relative activity [4]: 13% |
| O=C(O)c1cc[c]([Hg][Cl])cc1 [p-Chloromercuribenzoic acid] | 187 | – | – | – | – |
| O=C1CCCCCN1 [ε-Caprolactam] | – | 4.44 | 9.08 μmol/(min × ml × OD610 nm) | 40.3 | – |
